# According to patent publication US12049519B2, “Peptide for the delivery of anionic materials” (The Queen's University of Belfast, priority 2019, dated 2024):
# Residues, ends and D or L forms follow the SMILES beside them.
# Tests used:
# [1] = Cell viability, MTS assay (FIGS. 11 and 12B); assay type: cell-based; conditions: N:P ratio of 6 to 15; 24 h post transfection; relative to untreated cells
# Procedure: (§1) FIG. 11: Cell viability of A) MCF-7 and MDA-MB-231 breast cancer cells, B) DU145 and PC-3 prostate cancer cells, and C) NCTC-929 fibroblast, HMEC-1 endothelial, and HaCaT keratinocyte cells following transfection with Peptide 10. Cells were transfected with Peptide 10 at a range of N:P ratios for 4 h before replacement with complete medium. After 24 h, cells were treated with MTS reagent for 2 h in dark conditions. A Bio-Tek Powerwave XS plate reader was then used to read absorbance at 490 nm with Gen5 software and any background absorbance was subtracted from readings. Untreated cells were considered to be 100% viable and viability under all conditions was calculated relative to this.
# FIG. 12: Transfection efficiency and cell viability of nanoparticles comprising pEGFP-N1 and Peptide 10 assessed in ARPE human retinal cells. (A) Cells were transfected for 4 h with Peptide 10/pEGFP-N1 nanoparticles at a range of N:P ratios. Following transfection, medium was replaced with culture medium supplemented with 10% serum and incubated for 48 h before imaging using i) light and ii) fluorescence microscopy. Scale bar=400 μm. iii) Quantification of transfection efficiency was subsequently analysed by flow cytometry at 4% gating. […] A Bio-Tek Powerwave XS plate reader was then used to read absorbance at 490 nm with Gen5 software and any background absorbance was subtracted from readings. […]
# HMEC-1 endothelial cells = assay: Cell viability, MTS assay; assay type: cell-based; conditions: irrespective of the N:P ratio
# Procedure: as §1
# (§2) Cell viability was evaluated by MTS assay with CellTiter 96 AQueous One Solution Cell Proliferation Assay (Promega, UK). MDA-MB-231 and PC-3 cells were seeded at a density of 1.5×10^4 cells per well and MCF-7, and DU145cells seeded at 1.2×10^4 cells per well, ARPE, NCTC-929, HMEC-1, and HaCaT cells seeded at 1.0×10^4, and allowed to adhere in a 96 well plate. Cells were transfected CellTiter reagent was added to each well 24 h post transfection to give a final volume of 10% and returned to the incubator for 2 h. Absorbance was read at 490 nm using a Bio-Tek Powerwave XS plate reader with Gen5 software and any background absorbance was subtracted from readings. Cell viability was expressed as a percentage of the untreated control where the untreated control is considered to be 100% viable.
# HaCaT keratinocyte cells = assay: Cell viability, MTS assay; assay type: cell-based; conditions: N:P ratios of 15 and 20
# Procedure: as §1, §2
# [2] = tested on: NCTC-929 fibroblast cells; assay: Cell viability, MTS assay; assay type: cell-based; conditions: N:P ratios of 15 and 20
# Procedure: as §1, §2
# [3] = tested on: breast and prostate cancer cell lines; assay: Cell viability, MTS assay; assay type: cell-based; conditions: even at a high N:P ratio of 20
# Procedure: as §1, §2
# pEGFP-N1 = assay: DNA complexation efficiency assay, Quant-iT PicoGreen; assay type: binding
# Procedure: FIG. 2: DNA complexation efficiency assay using Quant-iT™ PicoGreen® reagent indicating the efficiency of A) Peptide 7, B) Peptide 8, C) Peptide 9, D) Peptide 10, E) Peptide 11 and F) Peptide 12 to complex 0.5 μg pEGFP-N1 (Accession Number: U55762.1) (a pDNA) at a range of N:P ratios. Peptide/pEGFP-N1 complexes were prepared at a range of N:P ratios from 1 to 20. 50 μl samples of each N:P ratio was pipetted into a 96-well plate with Quant-iT™ PicoGreen® reagent. Sample fluorescence was then analysed by excitation at 480 nm and the fluorescence emission intensity measured at 520 nm using a Synergy 2 Multi-Mode Microplate Reader. Fluorescence was then calculated as a percentage of the control and converted to the percentage DNA complexed.
# Peptide complexes and composite complexes were prepared at a range of N:P ratios from 1 to 20 to complex 0.5 μg pEGFP-N1. Quant-iT™ PicoGreen® Reagent (Life Technologies, UK) was diluted 1:200 in TAE buffer and 50 μl was added to each 50 μl sample. Sample fluorescence was analysed by excitation at 480 nm and the fluorescence emission intensity measured at 520 nm using a Synergy 2 Multi-Mode Plate Reader. Fluorescence intensity of a naked pDNA control (an N:P ratio of 0) was taken as 100% fluorescence and 0% complexed, and any fluorescence detected from samples was taken to be un-complexed. […]
# [4] = tested on: MCF-7 breast cancer cells; assay: Transfection with peptide/pEGFP-N1 nanoparticles, flow cytometry; assay type: cell-based; conditions: N:P ratios of 6 to 10
# Procedure: (§3) FIG. 5: Transfection efficiency of nanoparticles comprising pEGFP-N1 and A) Peptide 7, B) Peptide 8, C) Peptide 9, D) Peptide 10, E) Peptide 11 and F) Peptide 12 assessed in MCF-7 and
# (§4) MDA-MB-231 breast cancer cells. Cells were transfected for 4 h with peptide/pEGFP-N1 nanoparticles at a range of N:P ratios. Following transfection, medium was replaced with DMEM supplemented with 10% FCS and incubated for 48 h before quantification of transfection efficiency by flow cytometry at 4% gating.
# (§5) In order to assess the ability of peptide and composite nanoparticles to transfect cells, transfections were carried out in 96-well tissue culture plates.
# (§6) MCF-7 and MDA-MB-231 breast cancer cells were seeded at a density of 2.25×10^4 and 2.5×10^4 cells per well respectively, and allowed to adhere overnight at 37° C. with 5% CO2 (FIG. 5).
# (§7) Medium was replaced with OptiMEM (Invitrogen, UK) 2 h prior to transfection and the cells returned to the incubator at 37° C. with 5% CO2. […]
# (§8) Transfected cells were washed with phosphate buffered saline (PBS) and 2× trypsin used to detach cells at 37° C. in 5% CO2 atmosphere. […] A FACScalibur system (BD Bioscience, UK) or Accuri C6 Plus (BD Bioscience, UK) were used for the detection of green fluorescent protein (GFP) expressing cells at 4% gating (to reduce interference of auto-fluorescence) and results are reported as mean±SEM, n=3.
# [5] = tested on: MDA-MB-231 breast cancer cells; assay: as above; assay type: cell-based; conditions: N:P ratios of 6 to 10
# Procedure: as §3, §4, §5, §6, §7, §8
# [6] = tested on: MCF-7 breast cancer cells; assay: Endosomal escape study: transfection with and without chloroquine; assay type: cell-based; conditions: N:P 10, with and without 10 μM chloroquine, cell line not given
# Procedure: (§9) FIG. 6: Transfection efficiency of nanoparticles comprising pEGFP-N1 and Peptides 7 to 12 assessed in A) MCF-7 and B) MDA-MB-231 breast cancer cells with and without chloroquine, a reagent known to facilitate endosomal escape. Cells were transfected for 4 h with peptide/pEGFP-N1 nanoparticles at N:P 10. 10 μM chloroquine was added to cells in appropriate wells along with the nanoparticles. Following transfection, medium was replaced with DMEM supplemented with 10% FCS and incubated for 48 h before quantification of transfection efficiency by flow cytometry at 4% gating. […] Statistical analysis was carried out using an unpaired t test (*=P<0.05, ** =P<0.01, ***=P<0.001)
# (§10) In some instances, cells were treated with chloroquine (a reagent known to facilitate endosomal escape) (FIG. 6). For endosomal escape studies, 1 mM chloroquine (Sigma-Aldrich, UK) was added to the cells immediately before transfection, giving a final concentration of 10 μM chloroquine in the nanoparticle transfection mix.
# [7] = tested on: MDA-MB-231 breast cancer cells; assay: as above; assay type: cell-based; conditions: N:P 10, with and without 10 μM chloroquine, cell line not given
# Procedure: as §9, §10
# [8] = Nanoparticle hydrodynamic size, Malvern Zetasizer (DLS); assay type: physicochemical; conditions: low N:P ratios
# Procedure: FIG. 3: Mean hydrodynamic size and zeta potential of nanoparticles prepared with pEGFP-N1 and A) Peptide 7, B) Peptide 8, C) Peptide 9, D) Peptide 10, E) Peptide 11 or F) Peptide 12 at a range of N:P ratios. For example, at an N:P ratio of 10 with Peptide 7, nanoparticles comprise 0.5 μg of pEGFP-N1 and 5.7 μg Peptide 7. Nanoparticles were made up to 50 μl with molecular grade water and incubated for 30 min at room temperature before hydrodynamic size and zeta potential were measured using a Malvern Zetasizer Nano ZS instrument.
# Peptide complexes (an N:P ratio of 0) and composite complexes were prepared at a range of N:P ratios from 1 to 20 to complex 0.5 μg pEGFP-N1. For example, at an N:P ratio of 10 with Peptide 7, nanoparticles comprise 0.5 μg of pEGFP-N1 and 5.7 μg Peptide 7. Nanoparticles were made up to 50 μl with molecular grade water and incubated for 30 min at room temperature before a Malvern Zetasizer Nano ZS instrument with DTS software (Malvern Instruments, UK) was used to measure the mean hydrodynamic particle size of nanoparticles. A 40 μl disposable microcuvette was used to measure the mean size by number of nanoparticles formed by Dynamic Light Scattering (DLS) at 20° C. Results were reported as mean±SEM, and all measurements were performed in triplicate.
Compound,viability at 24 h [1] [%],cytotoxic effects (cell viability studies) (HMEC-1 endothelial cells),toxicity (cell viability studies) (HaCaT keratinocyte cells),toxicity (cell viability studies) [2],toxicity (cell viability studies) [3],maximum complexation efficiency (pEGFP-N1) [%],% transfection [4] [%],% transfection [5] [%],transfection regardless of chloroquine [6],transfection regardless of chloroquine [7],particle size as a function of N:P ratio [8]
"N=C(N)NCCC[C@H](NC(=O)[C@H](CCCNC(=N)N)NC(=O)[C@H](CCCNC(=N)N)NC(=O)[C@H](Cc1c[nH]c2ccccc12)NC(=O)[C@H](CCCNC(=N)N)NC(=O)[C@H](CCCNC(=N)N)NC(=O)[C@H](CCCNC(=N)N)NC(=O)[C@H](Cc1c[nH]cn1)NC(=O)[C@H](Cc1c[nH]cn1)NC(=O)[C@H](Cc1c[nH]cn1)NC(=O)[C@@H](N)CS)C(=O)N[C@@H](Cc1c[nH]cn1)C(=O)N[C@@H](Cc1c[nH]cn1)C(=O)N[C@@H](Cc1c[nH]cn1)C(=O)N[C@@H](CS)C(=O)O [Peptide 10, CHHHRRRWRRRHHHC] (H-CHHHRRRWRRRHHHC-OH)",> 60,no cytotoxic effects,weak toxicity,weak toxicity,"weak toxicity, if any",–,–,–,–,–,–
"CEHHRRRWRRRHHEC [Peptide 12, comparative linear peptide, outside the scope of the invention]",–,–,–,–,–,70,> 10,> 10,Very low,Very low,–
"CRRRRWRRRRC [Peptide 11, comparative linear peptide, outside the scope of the invention]",–,–,–,–,–,–,–,–,Very low,Very low,large particles form at lower N:P ratios
